Values of other authors, collected in patent publication US20060094833A1, “Shock resistant cyanoacrylate compositions” (LOCTITE (R&D) LIMITED, priority 2004, published 2006).

Details: for pKa 1: first acid group; for pKa 4: fourth; for pKa 2: second acid group; for pKa 3: third acid group

O=C(O)CC(C(=O)O)C(CC(=O)O)C(=O)O (centres unmarked) [1,2,3,4-Butane tetracarboxylic acid]
pKa 1: 3.25 | pKa 4: 6.54 | pKa 2: 4.51 | pKa 3: 5.02

O.O=C(O)c1cccc(C(=O)O)c1C(=O)O [1,2,3-Benzene tricarboxylic acid hydrate]
pKa 1: 2.52 | pKa 2: 4.00 | pKa 3: 6.12

O=C(O)CC(CC(=O)O)C(=O)O [1,2,3-Propane tricarboxylic acid]
pKa 1: 4.31 | pKa 2: 4.82 | pKa 3: 5.21

O=C(O)C=C(CC(=O)O)C(=O)O [1,2,3-Propene tricarboxylic acid]
pKa 1: 2.97 | pKa 2: 4.34 | pKa 3: 4.99

O=C(O)c1cc(C(=O)O)c(C(=O)O)cc1C(=O)O [1,2,4,5-Benzene tetracarboxylic acid]
pKa 4: 5.80 | pKa 2: 2.71 | pKa 3: 4.97

O=C(O)c1ccc(C(=O)O)c(C(=O)O)c1 [1,2,4-Benzene tricarboxylic acid]
pKa 2: 3.83

O=C(O)c1ccc2c(c1)C(=O)OC2=O [1,2,4-Benzene tricarboxylic anhydride]
pKa 1: 3.33

O=C(O)CC(O)(CC(=O)O)C(=O)O [Citric acid]
pKa 1: 2.93 | pKa 4: 16.13 | pKa 2: 4.23 | pKa 3: 5.09

CC(=O)C(=O)O [Pyruvic acid]
pKa 1: 2.65
